The text below walks through data of ChEMBL document CHEMBL1125188, “Synthesis and evaluation of stilbene and dihydrostilbene derivatives as potential anticancer agents that inhibit tubulin polymerization” (J Med Chem, 1991).

Assay type in all cases: functional
What all share (details): Homo sapiens, read-out: ED50 (the source's name)

One test concerns MLM. Nature of the test: Cytotoxic concentration required to inhibit 50% cell growth in MLM melanoma cell lines.
Another test relates to HT-29. Description: Cytotoxic concentration required to inhibit 50% cell growth in HT-29 colon adenocarcinoma cell lines.
In the next test the test system is MCF7. Nature of the test: Cytotoxic concentration required to inhibit 50% cell growth in MCF-7 breast carcinoma cell lines.
The test system of another test is SK-MEL-5. Description: Cytotoxic concentration required to inhibit 50% cell growth in SKMEL-5 melanoma cell lines.
In the next test the test system is A549. Nature of the test: Cytotoxic concentration required to inhibit 50% cell growth in A-549 lung carcinoma cell lines.

Take `COc1cc(CCc2ccncc2)cc(OC)c1OC`: the EC50 in the test with MLM, in the test with HT-29, in the test with MCF7, with SK-MEL-5 and in the test on A549 was > 25 µM each time.

`COc1ccccc1CCc1cc(OC)c(OC)c(OC)c1`: the EC50 in the test with MLM is > 25 µM; with HT-29, > 25 µM; in the test on MCF7, 11.8 µM; in the test with SK-MEL-5, 20 µM; with A549, 13.5 µM.

As for `COc1ccc(/C=C/c2ccccc2)c(OC)c1OC`, the EC50 in the test with MLM, with HT-29, in the test on MCF7, in the test on SK-MEL-5 and in the test on A549 was > 25 µM each time.

On to `COc1cc(/C=C/c2ccccn2)cc(OC)c1OC`, for which the EC50 in the test on MLM, in the test with HT-29, with MCF7, in the test with SK-MEL-5 and in the test on A549 was > 25 µM in each case.

On to `COc1cc(/C=C/c2ccncc2)cc(OC)c1OC`, for which the EC50 in the test on MLM, in the test on HT-29, with MCF7, in the test with SK-MEL-5 and in the test with A549 was > 25 µM each time.

For `COc1cc(/C=C/c2ccc(Cl)cc2)cc(OC)c1OC`, the EC50 in the test with MLM, in the test with HT-29, in the test on MCF7, in the test with SK-MEL-5 and with A549 was > 25 µM throughout.

In the case of `COc1cc(/C=C\c2ccc(O[Si](C)(C)C(C)(C)C)cc2)cc(OC)c1OC`, the EC50 with MLM stood at 17.2 µM; with HT-29 it was 10.6 µM; in the test with MCF7, 7.29 µM; in the test with SK-MEL-5, 7.59 µM; in the test with A549 it was 11 µM.

In the case of `COc1cc(CCc2ccccc2)cc(OC)c1OC`, the EC50 in the test with MLM, in the test with HT-29, in the test on MCF7, with SK-MEL-5 and in the test with A549 was > 25 µM in each case.

Take `COc1cc(OC)c(OC)cc1/C=C/c1ccccc1`: the EC50 in the test with MLM is > 25 µM; in the test on HT-29, > 25 µM; in the test with MCF7, 8.5 µM; in the test on SK-MEL-5 it was > 25 µM; with A549, > 25 µM.

With `COc1ccc(/C=C\c2ccc(OC)c(OC)c2OC)cc1`, the EC50 was 10.9 µM in the test on MLM; 1 µM in the test on HT-29; 0.23 µM in the test with MCF7; 1.1 µM in the test with SK-MEL-5; 0.97 µM in the test with A549.

With `COc1cc(/C=C\c2ccc(O)cc2)cc(OC)c1OC`, the EC50 with MLM amounted to 12.6 µM; in the test on HT-29, 1.75 µM; with MCF7, 5.7 µM; in the test with SK-MEL-5 it was 2.27 µM; in the test with A549, 12.7 µM.

Turning to `COc1cccc(CCc2cc(OC)c(OC)c(OC)c2)c1`, the EC50 in the test on MLM was > 25 µM; with HT-29 it was 7.6 µM; in the test with MCF7, 12.4 µM; in the test on SK-MEL-5, 9.2 µM; in the test on A549, 11.7 µM.

As for `COc1ccc(CCc2ccccc2)cc1OC`, the EC50 in the test on MLM, in the test on HT-29, with MCF7, in the test on SK-MEL-5 and in the test with A549 was > 25 µM throughout.

Regarding `COc1cc(OC)c(OC)cc1/C=C/c1cc(OC)c(OC)c(OC)c1`, the EC50 in the test on MLM, with HT-29, in the test on MCF7, in the test on SK-MEL-5 and with A549 was > 25 µM each time.

On to `COc1cc(CCc2cc(OC)c(OC)c(OC)c2)cc(OC)c1`, for which the EC50 in the test with MLM, with HT-29, with MCF7, in the test on SK-MEL-5 and in the test on A549 was > 25 µM throughout.

As to `COc1ccc(NC(=O)c2cc(OC)cc(OC)c2)cc1`, the EC50 in the test with MLM is > 25 µM; in the test on HT-29, 14.5 µM; in the test on MCF7, 5.47 µM; in the test on SK-MEL-5 it was 11.9 µM; in the test with A549 it was 9.02 µM.

As to `COc1ccc(/C=C\c2cc(OC)c(OC)c(OC)c2)cc1O` [COMBRETASTATIN A4], the EC50 in the test with MLM is 1.4e-05 µM; with HT-29, 1.2e-05 µM; in the test with MCF7 it was 3.8e-06 µM.
